Test results published in US6372897B1, “Mimotopic polypeptides of toxoplasma gondii and applications” (priority 1995, dated 2002).
Ends that are not written are not given here.

B1: P30 protein: the Toxoplasma gondii major antigen, peptide sequence identified by SEQ ID No.1 (protein)
chain: MSVSLHHFIISSGFLTSMFPKAVRRAVTAGVFAAPTLMSFLRCGVMASDPPLVANQVVTCPDKKSTAAVILTPTENHFTLKCPKTALTEPPTLAYSPNRQICPAGTTSSCTSKAVTLSSLIPEAEDSWWTGDSASLDTAGIKLTVPIEKFPVTTQTFVVGCIKGDDAQSCMVTVTVQARASSVVNNVARCSYGADSTLGPVKLSAEGPTTMTLVCGKDGVKVPQDNNQYCSGTTLTGCNEKSFKDILPKLTENPWQGNASSDKGATLTINKEAFPAESKSVIIGCTGGSPEKHHCTVKLEFAGAAGSAKSSAGTASHVSIFAMVTGLIGSIAACVA

How the values were obtained:
[1] = system: anti-P30 monoclonal antibody 1E1E7; assay: Spotscan overlapping pentadecapeptides on cellulose membrane, immunoreactivity with 1E1E7; assay type: binding, mouse; details: 1E1E7 60 nM
Experimental: According to the “Spotscan” technique, the synthesis of the peptides is carried out on cellulose membranes (Cambridge Research Biochemicals). The principle of the method is the same as that for Pepscan. The esterified amino acids are solubilized in N-methylpyrrolidone (NMP) at the concentration of […] and 0.9 μl are deposited at the level of spots for the deposition of bromophenol blue. After a 15 minute incubation, another deposition of amino acids is carried out followed by another 15 minute incubation. If the coupling between the two amino acids is carried out correctly, a change in color is observed (passage from blue to yellowish green). After three washes in DMF, an acetylation step is carried out with acetic anhydride. Then the terminal amino groups of the peptides being synthesized are deprotected with 20% piperidine in DMF. The deposition spots are restained with a 1% bromophenol blue solution in DMF, washed three times with methanol and dried. These operations as a whole constitute a cycle for addition of an amino acid and this cycle is repeated up to the end of the synthesis. When all the amino acids have been added, the NH2-terminal group of the last amino acid is deprotected with 20% piperidine in DMF and is acetylated with acetic anhydride. The side chain protecting groups are removed by a dichloromethane:trifluoroacetic acid:triisobutylsilane mixture (5 ml:5 ml:250 μl). The immunoreactivity of the peptides thus synthesized can then be tested by ELISA.
In order to reproduce the entire pentadecapeptide included in the phage clone isolated and to determine the possible role of the contiguous amino acids belonging to the sequence of the PIII protein of the phage (see Example 1), the chemical synthesis of overlapping pentadecapeptides, which cover the sequence […](SEQ ID No.59), was carried out on an activated cellulose membrane (“Spotscan”).
After synthesis of the various pentadecapeptides, the membrane is rinsed with methanol, washed in TBS (0.1M Tris, pH 7.2) and then incubated overnight at room temperature in saturation buffer (marketed by Cambridge Research Biochemicals). After several washes with TBS-T (0.1M Tris, pH 7.2-0.05% Tween 20), the membrane is brought into contact with a solution of anti-P30 monoclonal antibody 1E1E7 (60 nM) and incubated for 4 hours at room temperature. After three washes with TBS-T, the anti-mouse immunoglobulin conjugate labeled with galactosidase (marketed by Cambridge Research Biochemicals) is added at a 1/200 dilution and the whole is incubated for two hours at room temperature. After several washes of the membrane with PBS-Tween 0.05% and PBS, the immunoreactivity at the level of the various spots is visualized by adding a solution of substrate (5-bromo-4-chloro-3-indoyl-D-galactopyranoside in PBS containing magnesium chloride and potassium ferricyanide) and incubating for 10 to 40 minutes. The color of the spots is assessed qualitatively.

[2] = target: phage clone displaying the pentadecapeptide Trp-His-Trp-Arg-His-Arg-Ile-Pro-Leu-Gln-Leu-Ala-Ala-Gly-Arg (SEQ ID No.48) fused in the PIII protein (filamentous phage); assay: phage ELISA, phages captured by anti-M13 antibodies, 1E1E7 at 3 nM
[3] = target: T1, phage clone identified (SEQ ID No.48) (Enterobacteria phage fd, UniProt P03661); assay: ELISA: inhibition by human serum of the attachment of monoclonal antibody 1E1E7 to the phage clone; assay type: binding; details: phages containing the sequence
T1 construct: made in house; host or cells: E. coli (K19Kan), phage amplification
Experimental: The ELISA test was carried out as described in Example 2 with the following modifications: 100 μl of various dilutions of human serum of a patient infected with Toxoplasma gondii (positive serum—reference G8) are brought into contact with the. phage clone identified, immobilized as described in Example 2, for 30 minutes at 37° C. After two washes with TBS/Tween 0.05%, 100 μl of monoclonal antibody 1E1E7 at the concentration of 6 nM are added and incubated overnight at 4° C. After four washes with TBS/Tween, 100 μl of anti-mouse conjugate labeled with peroxidase are added and then incubated for one hour at 37° C. The enzymatic reaction for visualization was carried out by adding 100 μl of an H2O2/orthophenylenediamine (OPD) solution and incubating the sample for 30 minutes at room temperature. The staining reaction is stopped by adding 50 μl of 1.8N sulfuric acid. The optical density is measured on a BioMé rieux plate reader at 492 nm. Moreover, a control was produced, under the same reaction conditions but with a human serum not infected with Toxoplasma gondii (negative serum), in order to ensure that the phage clone identified reacts specifically with the human serum of a patient infected with Toxoplasma gondii.

[4] = system: anti-P30 monoclonal antibody 1E1E7; assay: Competition ELISA: inhibition by native P30 protein of the ELISA response of the phage clone; assay type: binding, mouse; details: phage clone SEQ ID No.48
Experimental: A competition ELISA test was carried out in order to determine if the response obtained with the phage clone identified is inhibited by pre-incubation of the anti-P30 monoclonal antibody 1E1E7 with the P30 protein.
The ELISA test is carried out as described in Example 2 with the following modifications: the monoclonal antibody 1E1E7 (at the concentration of 6 nM) is preincubated with various concentrations of P30 protein for 20 minutes at 37° C. and then the mixture is added to the wells of the ELISA plate in which the phages corresponding to the pentadecapeptide Trp-His-Trp-Arg-His-Arg-Ile-Pro-Leu-Gln-Leu-Ala-Ala-Gly-Arg (SEQ ID No.48) are attached.

Row | Molecule | Color of the spots (immunoreactivity), assessed qualitatively [1] | further results
1 | IPLQLAAGRGAAGAE [SEQ ID No.33] | very slight color | –
2 | PLQLAAGRGAAGAET [SEQ ID No.34] | disappears completely | –
3 | HRIPLQLAAGRGAAG [SEQ ID No.9] | maximum | –
4 | anti-P30 monoclonal antibody 1E1E7 (BioMerieux) | – | OD (492 nm) [2]: 0.269 to 0.274 OD 492 nm
5 | RIPLQLAAGRGAAGA [SEQ ID No.32] | maximum | –
6 | WHWRHRIPLQLAAGR [SEQ ID No.48] | – | Recognition by the antibodies present in the sera of patients infected with Toxoplasma gondii [3]: indeed recognized
7 | SADGAWHWRHRIPLQ [SEQ ID No.231] | a first color | –
8 | B1 | – | Inhibition of the ELISA response ([4]; P30 protein 35 ng/ml preincubated with 6 nM 1E1E7): 45%; Inhibition of the ELISA response ([4]; P30 protein 3.5 μg/ml preincubated with 6 nM 1E1E7): 80%
